The source of these data is patent publication US10150795B2, “Peptide having antimicrobial activity against pathogens and antimicrobial peptide composition comprising the same” (Hankuk University of Foreign Studies Research & Business …, priority 2016, dated 2018).

Data set [1] in a line: in vitro. Type of data set: cell-based. The note with it: mouse. As to the method:
(§1) A cytotoxicity experiment was performed by a test method using a Cyto X™ cell viability assay kit (LPS SOLUTION). A 96-well cell culture plate was purchased from Corning, and mammalian cell lines were purchased from the American Type Culture Collection (ATCC). Also, the CytoX™ cell viability assay kit was purchased from LPS SOLUTION.
(§2) As an experimental method, stored frozen cells were thawed, cultured in a DMEM or RP 11640 medium supplemented with 10% FBS, and then sub-cultured at intervals of 2 to 3 days until a density of the cells reached 80 to 90%. For this experiment, the cells were detached by treating the cells with trypsin-EDTA, and then divided into wells of a 96-well plate so that the number of the cells amounted to 10,000 cells. Thereafter, the cells were cultured at 37° C. for 24 hours in a CO2 incubator. Each of the prepared peptides was diluted with DMSO to concentrations of 10, 1, 0.1, 0.01, and 0.001 mM, and then diluted at 1:100 by adding 1 μl of DMSO or each of the prepared peptides to each well. Then, the cells were cultured at 37° C. for 24 hours in a CO2 incubator. To measure cytotoxicity, 10 μl of each of the peptides prepared using the Cyto X™ cell viability assay kit (LPS SOLUTION) was added to each well. The cells were cultured at 37° C. for 1 to 4 hours in a CO2 incubator, and an optical density was measured at 450 nm using a microplate reader. Then, the measured optical density was calculated as a percentage of a value measured for DMSO, and a graph was plotted using GraphPad Prism 5. Then, an IC50 value was calculated. When each of the IC50 values of the four peptides in each cell line was greater than or equal to 10 μM, the peptides were judged to have no general cytotoxicity.

Data set [2] in a line: in vitro. The data set is classed as cell-based. As to the method:
as §1, §2

The next data set deals with CHO-K1 cell line. The data set can be described thus: in vitro. The data set is classed as cell-based. As to the method:
as §1, §2

Data set [3] has as its system Listeria innocua MC2 KCTC 3658, Staphylococcus aureus ATCC 6538, Pseudomonas aeruginosa ATCC 27853, Salmonella ATCC 19430, Escherichia coli KCTC 1682. The data set can be described thus: Minimal inhibitory concentration, standard broth microdilution method. The data set is classed as cell-based. The note with it: five strains, 37° C., 12 hours. As to the method: An antimicrobial assay was performed by measuring a minimal inhibitory concentration (MIC) value using a standard broth microdilution method. The antimicrobial activity of each of the peptides was measured using two gram-positive bacteria (Listeria innocua MC2 KCTC 3658 and Staphylococcus aureus ATCC 6538) and three gram-negative bacteria (Pseudomonas aeruginosa ATCC 27853, Salmonella ATCC 19430, and Escherichia coli KCTC 1682). 50 μl of each of the five bacterial strains were prepared, mixed with 5 ml of 3.7% BHI, and then cultured overnight under conditions of 37° C. and 240 rpm. Thereafter, 50 μl of each of the cultured bacterial strains was mixed with 5 ml of 3.7% BHI, and cultured for 2 hours under conditions of 37° C. and 240 rpm. Each of the cultured bacterial strains was diluted with a 0.037% BHI solution to a concentration of 1×10^8 CFU/ml.
A dissolved synthetic peptide was diluted twofold, stepwise, with BHIB in a 96 well-plate. […] After the incubation, a change in optical density at 600 nm was measured using Microplate Reader Multiskan FC (Thermo Scientific, Waltham, Mass., USA), and a range of the MIC was set as the lowest concentration of a peptide in which the growth of bacteria starts to be inhibited. […]
On the technique in general: In broth dilution the organism is exposed to a series of concentrations in liquid medium.

The conditions of data set [4]: at a concentration of 200 μM or less; cited from earlier work.
Data set [5] deals with gram-positive and gram-negative bacteria. The conditions noted are these: cited from earlier work.

Ends that are not written are not given here.

Usually IC50 stands for the concentration that inhibits the measured activity by half. As to “H-NKVKEWIKYLKSLFK-OH [YK5, NKVKE WIKYL KSLFK]”, the IC50 at 24 h was over 100 µM in “in vitro [1]”; over 100 µM in the data set “in vitro [2]” (African green monkey); 57 µM in “in vitro [2]” (Chinese hamster); over 100 µM in “in vitro [2]” (human); over 100 µM in “in vitro [2]” (mouse). Also, in the data set on CHO-K1 cell line, the “cytotoxicity compared with YK3” value was “lower cytotoxicity than the YK3 peptide”. Besides, in data set [3], the “antibacterial activity (MIC experiment, FIG. 2)” value is on record as “effective antibacterial activity against the five strains when used at a low concentration”.
In the case of “NKVKEWIKYLKSKFK [YK8, NKVKE WIKYL KSKFK]”, the IC50 at 24 h in “in vitro [1]” is over 100 µM; in the data set “in vitro [2]” (African green monkey) it was over 100 µM; in the data set “in vitro [2]” (Chinese hamster) it was 71.9 µM; in the data set “in vitro [2]” (human) it was over 100 µM; in the data set “in vitro [2]” (mouse) it was over 100 µM. In the data set on CHO-K1 cell line, the “cytotoxicity compared with YK3” value was “lower cytotoxicity than the YK3 peptide”.
Take “NKVKEWIKYLKSLFS [YK3, NKVKE WIKYL KSLFS]”: the values for the IC50 at 24 h in the data set “in vitro [2]” (African green monkey), in “in vitro [2]” (Chinese hamster) and in the data set “in vitro [2]” (human) were 99.1 µM, 56.2 µM and 94 µM, respectively.
For the substance NKVKEWWKWLKKL [YK11, NKVKE WWKWL KKL], the IC50 at 24 h in “in vitro [1]” was 96.6 µM; in the data set “in vitro [2]” (African green monkey), 83.7 µM; in “in vitro [2]” (Chinese hamster), 86.8 µM; in “in vitro [2]” (human) it was over 100 µM; in the data set “in vitro [2]” (mouse), over 100 µM. Besides, the “cytotoxicity compared with YK3” value in the data set with CHO-K1 cell line was “lower cytotoxicity than the YK3 peptide”.
For the substance “NTVKETIKYLKSLFSHAFEVVKT (NTVKETIKYLKSLFSHAFEVVKT; LPcin-1 (23mer)) [LPcin-I, wild-type lactophoricin from cow milk, 23 amino acid residues, carboxyl terminal 113 to 135 region of PP3]”, the hemolytic action result in data set [4] is “does not have a hemolytic action”. Further, in data set [5], the “growth inhibition / antimicrobial functionality” value is “inhibits the growth of both gram-positive and gram-negative bacteria”.
